# Laboratory results from publication PMC7074166, “Screening for Small Molecule Modulators of Trypanosoma brucei Hsp70 Chaperone Activity Based upon Alcyonarian Coral-Derived Natural Products” (Marine Drugs, 2020).
# Test system: HeLa (human cervix adenocarcinoma) cells
# Test: Resazurin-based cytotoxicity assay on a mammalian cell line
# Conditions: 20 μM, Figure S2
# Procedure: HeLa cells were grown and maintained in a culture medium comprised of Dulbecco’s Modified Eagle’s Medium (DMEM) with 5 mM L-glutamine (Lonza, Basel, Switzerland), supplemented with 10% (v/v) heat inactivated foetal bovine serum and antibiotics (penicillin/streptomycin/fungizone-PSF) in a humidified chamber at 37 °C with an atmosphere of 5% CO2. To carry out passaging of cells, cultures were treated with 1% trypsin (w/v) to lift cells, which were then washed in 1 × phosphate buffered saline (PBS) before being re-seeded into culture flasks. For assessment of the cytotoxic effects, the small molecules were added to HeLa cells at a fixed concentration of 20 μM. After an incubation period of 24 h, the number of cells surviving drug exposure were determined using a resazurin-based cytotoxicity assay. The resazurin-based cytotoxicity assay was conducted as previously mentioned. Results were expressed as % cell—the resorufin fluorescence in small molecule-treated wells relative to untreated controls. Assessment of each small molecule was conducted in duplicate, with error bars representing standard deviation (SD).
smiles,measurement,value
"CC(C)=CCC/C(C)=C/CCC(C)=CCn1ccc(=NC=O)n(CC=C(C)CC/C=C(\C)CCC=C(C)C)c1=O [Compound 62, N-(-2-Oxo-1,3-bis((6E)-3,7,11-trimethyldodeca-2,6,10-trien-1-yl)-2,3-dihydropyrimidin-4(1H)-ylidene)formamide]",toxicity to HeLa cells,toxic
